# Ends that are not written are not given here.
# Assays:
# Type in all cases: cell-based
# [1] = system: Human hair follicle dermal papilla cells; test: DPC proliferation assay (MTT); conditions: serum-free medium, 3 days incubation, absorbance 550 nm, FIGS. 1a, 1b
# Experimental: Human hair follicle dermal papilla cells were seeded at a density of 2×10^3 cells/well on 96-well plates, followed by incubation overnight. After changing into serum-free medium, the cells were treated with the peptides, followed by incubation for 3 days, and then the wells were treated with 4 mg/ml MTT solution, followed by reaction for 4 hours. The resulting formazan was solubilized with DNSO, and then the absorbance was measured at 550 nm using a microplate reader.
# β-catenin = test: β-Catenin activity test (western blotting); conditions: human hair follicle dermal papilla cells, 15 and 30 minutes, nuclear and cytoplasmic proteins, FIGS. 2a, 2b
# Experimental: (§1) Human hair follicle dermal papilla cells were seeded at a density of 4×10^5 cells/well on 6-well plates, followed by incubation overnight. After changing into serum-free medium, the cells were treated with the peptides, followed by incubation for 15 and 30 minutes, and then the wells were harvested to isolate nuclear and cytoplasmic proteins. Western blotting was performed using β-catenin (Santa Cruz Biotechnology, USA) to compare β-catenin expression patterns.
# GSK3β = test: β-Catenin activity test: GSK3β phosphorylation; conditions: human hair follicle dermal papilla cells, 15 and 30 minutes, western blotting; FIGS. 2a, 2b
# PI3K = PI3K western blotting; conditions: human hair follicle dermal papilla cells, 15 and 30 minutes, FIGS. 3a, 3b
# Experimental: as §1, with “to prepare the cell lysate.” for “to isolate nuclear and cytoplasmic proteins.”, “using PI3K antibodies” for “using β-catenin”, “USA) and phospho-ERK antibody (Cell Signaling Technology, USA)” for “USA)”, “compare protein” for “compare β-catenin”
# ERK = test: p-ERK western blotting; conditions: human hair follicle dermal papilla cells, 15 and 30 minutes, FIGS. 3a, 3b
# Experimental: as §1, with “to prepare the cell lysate.” for “to isolate nuclear and cytoplasmic proteins.”, “using PI3K antibodies” for “using β-catenin”, “USA) and phospho-ERK antibody (Cell Signaling Technology, USA)” for “USA)”, “compare protein” for “compare β-catenin”
# Bcl-2 = Bcl-2 western blotting; conditions: human hair follicle dermal papilla cells, 24 hours, FIGS. 4a, 4b
# Experimental: (§2) Human hair follicle dermal papilla cells were seeded at a density of 4×10^5 cells/well on 6-well plate, followed by incubation overnight. After changing into serum-free medium, the cells were treated with the peptides, followed by incubation for 24 hours, and then the wells were harvested to prepare cell lysate. Western blotting was performed using Bcl-2 and Bax antibodies (Santa Cruz Biotechnology, USA) to compare protein expression patterns.
# Bax = Bax western blotting; conditions: human hair follicle dermal papilla cells, 24 hours, FIGS. 4a, 4b
# Experimental: as §2
# keratin-14 = test: Keratin-14 RT-PCR; conditions: human hair follicle dermal papilla cells, 24 hours, FIGS. 5a, 5b
# Experimental: (§3) Human hair follicle dermal papilla cells were seeded at a density of 5×10^5 cells/well on 6-well plates, followed by incubation overnight. After changing into serum-free medium, the cells were treated with the peptides, followed by incubation for 24 hours, and then the wells were harvested to isolate RNA. After RNA quantification, cDNA synthesis was conducted using the cDNA synthesis kit (Intron, Korea), followed by PCR using PCR premix (Intron, Korea) and keratin-14 primers, and then electrophoresis was performed on 5% agarose gel to compare the mRNA expression level of the growth factor in respective sample treatment conditions.
# VEGF = VEGF RT-PCR; conditions: human hair follicle dermal papilla cells, 24 hours, RT-PCR (mRNA); FIG. 6
# Experimental: as §3, with “4×10^5” for “5×10^5”, “plate,” for “plates,”, “respective KGF and VEGF” for “keratin-14”, “levels” for “level”, “factors” for “factor”, “in” for “in respective”
# KGF = KGF RT-PCR; conditions: human hair follicle dermal papilla cells, 24 hours, RT-PCR (mRNA); FIG. 6
# Experimental: as §3, with “4×10^5” for “5×10^5”, “plate,” for “plates,”, “respective KGF and VEGF” for “keratin-14”, “levels” for “level”, “factors” for “factor”, “in” for “in respective”
# TGF-β1 = TGF-β1 RT-PCR; conditions: human hair follicle dermal papilla cells, 24 hours, RT-PCR (mRNA); FIG. 7
# Experimental: as §3, with “4×10^5” for “5×10^5”, “plate,” for “plates,”, “TGF-β1” for “keratin-14”, “in” for “in respective”
# MSX2 = MSX2 RT-PCR; conditions: human hair follicle dermal papilla cells, 24 hours, RT-PCR (mRNA); FIG. 8
# Experimental: as §3, with “4×10^5” for “5×10^5”, “plate,” for “plates,”, “MSX2” for “keratin-14”, “in” for “in respective”
# [2] = system: melanocytes (B16F10 cell line); test: Melanin measurement assay; conditions: 72 hours, intracellular melanin, absorbance 490 nm, FIGS. 9a, 9b
# Experimental: After melanocytes (B16F10 cell line) in 6-well plates were cultured in an incubator at 37° C. for 24 hours, the medium of each plate was removed and exchanged with a fresh medium, followed by treatment with the present peptide with different concentrations. After the incubation for 72 hours, the culture medium was removed, and the cells were taken off and then transferred into 1.5-ml tubes, followed by centrifugation at 13,000 rpm for 3 minutes. The supernatant was removed, and cell pellets were collected to observe melanin. Then, 150 μl of 2 M NaOH was added to the cell pellets to lyse intracellular melanin at 60° C. for 30 minutes. Then, 100 μl of the supernatant obtained from the lysis was added into each well of 96-well plates, and the absorbance was measured at 490 nm.
# MITF [3] = test: Melanogenesis-related gene RT-PCR: MITF; conditions: B16F10 cell line, 72 hours, FIG. 10
# Experimental: (§4) Melanocytes (B16F10 cell line) were incubated on 6-well culture plates for 24 hours, and were treated with the peptides of the present invention with different concentrations. After RNA was extracted from the cells incubated for 72 hours, cDNA was prepared. PCR was performed by using respective primers specific to MITF and tyrosinase, which are involved in melanogenesis, and the expression changes of the respective genes were observed.
# tyrosinase [4] = test: Melanogenesis-related gene RT-PCR: tyrosinase; conditions: B16F10 cell line, 72 hours, FIG. 10
# Experimental: as §4
# TRP1 = test: Melanogenesis-related gene RT-PCR: TRP1; conditions: B16F10 cell line, 72 hours, FIG. 10 legend
# MITF [5] = test: Melanogenesis-related protein western blotting: MITF; conditions: B16F10 cell line, 72-hour incubation, FIG. 11
# Experimental: (§5) Melanocytes (B16F10 cell line) were incubated on 6-well culture plates for 24 hours, and were treated with the peptides of the present invention with different concentrations. After 72-hour incubation, the cells were lysed, and the cells were subjected to western blotting using specific antibodies (two types, both from Santa Cruz Biotechnology, USA) to investigate the expression of MITF and tyrosinase, which are factors involved in melanogenesis.
# tyrosinase [6] = test: Melanogenesis-related protein western blotting: tyrosinase; conditions: B16F10 cell line, 72-hour incubation, FIG. 11
# Experimental: as §5
Sequence,growth of human hair follicle dermal papilla cells [1],activity of β-catenin (β-catenin),phosphorylation level of GSK3β (GSK3β),expression of PI3K (PI3K),phosphorylation of ERK (ERK),expression of the anti-apoptotic protein Bcl-2 (Bcl-2),expression of the apoptosis-related protein Bax (Bax),mRNA expression of keratin-14 (keratin-14),expression of VEGF (VEGF),expression of KGF (KGF),expression of TGF-β1 (TGF-β1),expression of MSX2 (MSX2),melanogenesis in melanocytes [2],mRNA expression of MITF transcriptional factor (MITF [3]),mRNA expression of tyrosinase enzyme (tyrosinase [4]),mRNA expression of TRP1 (TRP1),protein expression of MITF transcription factor (MITF [5]),protein expression of tyrosinase enzyme (tyrosinase [6])
ACTSSQLRSC (cysteine pairing not given here) [SEQ ID NO: 1],stimulated in a dose-dependent manner,increased,increased,increased,increased,increased,decreased,increased,increased,increased,increased,increased,increased,increased,increased,increases,increased,increased
KYLLVHRPYYRR [SEQ ID NO: 2],stimulated in a dose-dependent manner,increased,increased,increased,increased,increased,decreased,increased,,,,,increased,,,,,

# Reference: patent publication US10344061B2, “Peptide exhibiting hair growth promoting activity and/or melanin production promoting activity and use thereof” (CAREGEN CO., LTD., priority 2016, dated 2019)
